Columns and labels:
Assay in all cases: radiometric filter-binding kinase assay, Kinase HotSpot
Settings in all cases: compound 0.5 µM; ATP 10 µM
SLK (human) = SLK (human) (UniProt Q9H2G2)
CDK6 CCND3 (human) = CDK6 CCND3 (human) (UniProt P30281+Q00534)
PRKACA (human) = PRKACA (human) (UniProt P17612)
TYRO3 (human) = TYRO3 (human) (UniProt Q06418)
CDK2 CCNA2 (human) = CDK2 CCNA2 (human) (UniProt P24941+P20248)
CAMK1G (human) = CAMK1G (human) (UniProt Q96NX5)
PAK7 (human) = PAK7 (human) (UniProt Q9P286)
PDGFRA (human) = PDGFRA (human) (UniProt P16234)
EPHB2 (human) = EPHB2 (human) (UniProt P29323)
TGFBR2 (human) = TGFBR2 (human) (UniProt P37173)
DAPK2 (human) = DAPK2 (human) (UniProt Q9UIK4)
DAPK1 (human) = DAPK1 (human) (UniProt P53355)
CLK1 (human) = CLK1 (human) (UniProt P49759)
CDK4 CCND1 (human) = CDK4 CCND1 (human) (UniProt P24385+P11802)
MAP3K9 (human) = MAP3K9 (human) (UniProt P80192)
TBK1 (human) = TBK1 (human) (UniProt Q9UHD2)
MKNK2 (human) = MKNK2 (human) (UniProt Q9HBH9)
CAMK2A (human) = CAMK2A (human) (UniProt Q9UQM7)
STK11 (human) = STK11 (human) (UniProt Q15831)
STK10 (human) = STK10 (human) (UniProt O94804)
CHEK1 (human) = CHEK1 (human) (UniProt O14757)
PRKG2 (human) = PRKG2 (human) (UniProt Q13237)
FLT3 (human) = FLT3 (human) (UniProt P36888)
TAOK3 (human) = TAOK3 (human) (UniProt Q9H2K8)
PRKX (human) = PRKX (human) (UniProt P51817)
CAMK2B (human) = CAMK2B (human) (UniProt Q13554)
CAMK2D (human) = CAMK2D (human) (UniProt Q13557)
JAK2 JH1 JH2 (human) = JAK2 JH1 JH2 (human) (UniProt O60674)
STK3 (human) = STK3 (human) (UniProt Q13188)
AKT2 (human) = AKT2 (human) (UniProt P31751)
HCK (human) = HCK (human) (UniProt P08631)
INSRR (human) = INSRR (human) (UniProt P14616)
SYK (human) = SYK (human) (UniProt P43405)
TSSK2 (human) = TSSK2 (human) (UniProt Q96PF2)
PAK2 (human) = PAK2 (human) (UniProt Q13177)
ROCK1 (human) = ROCK1 (human) (UniProt Q13464)
IKBKB (human) = IKBKB (human) (UniProt O14920)
CDK3 CCNE1 (human) = CDK3 CCNE1 (human) (UniProt Q00526+P24864)
IRAK4 (human) = IRAK4 (human) (UniProt Q9NWZ3)
PRKCB2 (human) = PRKCB2 (human) (UniProt P05771)
TGFBR1 (human) = TGFBR1 (human) (UniProt P36897)
PRKCA (human) = PRKCA (human) (UniProt P17252)

Chain of MKNK2 (human) (Q9HBH9 whole entry, looked up): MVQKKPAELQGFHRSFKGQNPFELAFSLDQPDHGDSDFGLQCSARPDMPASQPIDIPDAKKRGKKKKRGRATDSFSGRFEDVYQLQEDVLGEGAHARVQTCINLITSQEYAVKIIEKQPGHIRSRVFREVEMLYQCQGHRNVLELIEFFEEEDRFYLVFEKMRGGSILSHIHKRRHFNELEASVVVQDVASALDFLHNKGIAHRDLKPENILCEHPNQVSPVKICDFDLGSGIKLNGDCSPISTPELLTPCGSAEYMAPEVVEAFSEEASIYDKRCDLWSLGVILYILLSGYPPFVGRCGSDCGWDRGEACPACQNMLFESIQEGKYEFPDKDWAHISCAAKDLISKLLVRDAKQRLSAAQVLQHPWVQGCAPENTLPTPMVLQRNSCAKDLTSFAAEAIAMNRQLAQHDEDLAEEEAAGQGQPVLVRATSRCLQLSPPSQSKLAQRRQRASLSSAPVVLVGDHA
Chain of JAK2 JH1 JH2 (human) (O60674 whole entry, looked up): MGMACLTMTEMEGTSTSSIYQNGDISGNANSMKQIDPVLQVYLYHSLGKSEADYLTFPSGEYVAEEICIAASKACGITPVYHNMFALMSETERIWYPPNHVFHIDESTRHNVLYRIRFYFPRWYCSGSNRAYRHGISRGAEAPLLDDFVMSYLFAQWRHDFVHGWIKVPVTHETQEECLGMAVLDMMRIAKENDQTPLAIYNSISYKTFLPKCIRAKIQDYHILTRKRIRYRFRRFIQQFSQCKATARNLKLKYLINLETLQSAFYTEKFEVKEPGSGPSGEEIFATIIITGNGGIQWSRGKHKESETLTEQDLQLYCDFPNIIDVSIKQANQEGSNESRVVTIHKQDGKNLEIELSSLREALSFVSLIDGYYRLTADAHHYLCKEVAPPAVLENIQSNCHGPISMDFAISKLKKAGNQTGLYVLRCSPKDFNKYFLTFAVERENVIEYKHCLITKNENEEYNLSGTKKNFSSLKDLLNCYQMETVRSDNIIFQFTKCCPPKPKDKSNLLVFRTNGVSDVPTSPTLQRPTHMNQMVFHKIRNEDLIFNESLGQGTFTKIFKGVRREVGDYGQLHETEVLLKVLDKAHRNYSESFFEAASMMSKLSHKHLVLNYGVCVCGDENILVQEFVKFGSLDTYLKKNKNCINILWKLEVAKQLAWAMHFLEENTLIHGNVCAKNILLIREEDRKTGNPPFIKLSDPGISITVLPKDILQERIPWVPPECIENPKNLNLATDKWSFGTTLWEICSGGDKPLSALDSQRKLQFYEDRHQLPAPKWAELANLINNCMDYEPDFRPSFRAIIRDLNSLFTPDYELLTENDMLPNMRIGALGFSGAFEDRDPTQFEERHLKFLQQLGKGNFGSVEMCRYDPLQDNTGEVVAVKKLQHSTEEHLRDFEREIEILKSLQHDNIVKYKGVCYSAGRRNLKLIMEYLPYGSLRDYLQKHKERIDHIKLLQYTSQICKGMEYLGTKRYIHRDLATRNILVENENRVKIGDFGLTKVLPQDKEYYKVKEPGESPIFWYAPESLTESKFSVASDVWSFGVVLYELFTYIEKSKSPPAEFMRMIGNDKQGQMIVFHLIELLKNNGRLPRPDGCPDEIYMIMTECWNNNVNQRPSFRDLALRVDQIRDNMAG
Chain of STK10 (human) (O94804 whole entry, looked up): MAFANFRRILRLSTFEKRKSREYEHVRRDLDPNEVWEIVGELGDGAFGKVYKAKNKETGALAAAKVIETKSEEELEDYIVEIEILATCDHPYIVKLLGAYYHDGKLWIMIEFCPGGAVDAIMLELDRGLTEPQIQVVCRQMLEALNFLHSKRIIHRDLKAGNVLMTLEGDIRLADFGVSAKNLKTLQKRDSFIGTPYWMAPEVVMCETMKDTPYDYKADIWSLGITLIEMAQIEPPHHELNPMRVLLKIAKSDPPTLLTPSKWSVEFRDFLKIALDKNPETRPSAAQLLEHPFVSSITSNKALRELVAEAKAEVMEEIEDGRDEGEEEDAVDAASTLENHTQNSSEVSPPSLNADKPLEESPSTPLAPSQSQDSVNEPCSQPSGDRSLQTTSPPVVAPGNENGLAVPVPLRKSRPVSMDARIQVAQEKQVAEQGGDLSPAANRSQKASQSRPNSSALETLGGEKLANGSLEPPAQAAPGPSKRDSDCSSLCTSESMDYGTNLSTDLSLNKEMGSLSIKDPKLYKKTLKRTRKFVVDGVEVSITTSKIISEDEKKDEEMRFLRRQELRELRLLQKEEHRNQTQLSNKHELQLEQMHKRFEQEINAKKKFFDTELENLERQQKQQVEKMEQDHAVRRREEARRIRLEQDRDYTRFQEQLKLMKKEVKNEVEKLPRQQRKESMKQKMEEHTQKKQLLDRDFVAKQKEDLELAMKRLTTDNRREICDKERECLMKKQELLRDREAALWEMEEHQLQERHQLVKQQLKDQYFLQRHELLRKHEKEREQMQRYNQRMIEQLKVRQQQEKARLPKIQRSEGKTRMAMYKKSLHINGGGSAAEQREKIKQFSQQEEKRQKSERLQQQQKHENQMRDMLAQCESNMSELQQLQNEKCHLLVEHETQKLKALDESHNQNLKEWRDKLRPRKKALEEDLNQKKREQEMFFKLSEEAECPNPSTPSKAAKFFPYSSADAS
Chain of CDK2 CCNA2 (human) (P20248 whole entry, looked up, other chains not shown): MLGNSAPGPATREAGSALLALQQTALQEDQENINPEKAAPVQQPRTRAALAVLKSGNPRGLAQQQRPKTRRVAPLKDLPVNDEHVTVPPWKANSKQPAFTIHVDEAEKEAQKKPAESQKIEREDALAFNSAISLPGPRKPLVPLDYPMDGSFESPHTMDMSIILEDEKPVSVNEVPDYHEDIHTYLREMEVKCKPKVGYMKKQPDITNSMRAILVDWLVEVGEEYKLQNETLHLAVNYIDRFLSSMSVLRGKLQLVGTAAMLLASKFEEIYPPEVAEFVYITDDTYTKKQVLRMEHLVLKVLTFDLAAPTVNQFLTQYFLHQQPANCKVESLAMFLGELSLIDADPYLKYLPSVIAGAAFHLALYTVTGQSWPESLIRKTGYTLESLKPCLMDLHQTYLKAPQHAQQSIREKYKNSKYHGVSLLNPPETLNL
Chain of PAK7 (human) (Q9P286 whole entry, looked up): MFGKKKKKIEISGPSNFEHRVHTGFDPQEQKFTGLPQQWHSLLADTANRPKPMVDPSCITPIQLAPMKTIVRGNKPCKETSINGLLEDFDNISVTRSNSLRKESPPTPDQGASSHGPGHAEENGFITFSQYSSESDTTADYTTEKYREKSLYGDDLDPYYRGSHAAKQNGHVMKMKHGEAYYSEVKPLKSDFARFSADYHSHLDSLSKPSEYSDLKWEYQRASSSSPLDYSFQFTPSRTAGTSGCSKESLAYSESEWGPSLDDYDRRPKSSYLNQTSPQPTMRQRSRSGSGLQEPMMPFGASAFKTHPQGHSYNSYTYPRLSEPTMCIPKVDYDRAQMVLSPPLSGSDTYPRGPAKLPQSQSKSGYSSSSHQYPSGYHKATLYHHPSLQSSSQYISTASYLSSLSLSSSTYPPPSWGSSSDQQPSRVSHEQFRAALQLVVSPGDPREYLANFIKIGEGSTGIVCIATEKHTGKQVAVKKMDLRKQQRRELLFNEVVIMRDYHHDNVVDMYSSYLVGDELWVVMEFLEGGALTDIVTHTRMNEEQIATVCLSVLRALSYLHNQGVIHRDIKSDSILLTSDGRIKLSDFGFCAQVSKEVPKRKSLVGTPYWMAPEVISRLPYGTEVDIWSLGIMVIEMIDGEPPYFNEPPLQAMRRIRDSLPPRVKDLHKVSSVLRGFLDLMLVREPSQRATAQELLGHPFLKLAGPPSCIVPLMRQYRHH
Chain of CAMK1G (human) (Q96NX5 whole entry, looked up): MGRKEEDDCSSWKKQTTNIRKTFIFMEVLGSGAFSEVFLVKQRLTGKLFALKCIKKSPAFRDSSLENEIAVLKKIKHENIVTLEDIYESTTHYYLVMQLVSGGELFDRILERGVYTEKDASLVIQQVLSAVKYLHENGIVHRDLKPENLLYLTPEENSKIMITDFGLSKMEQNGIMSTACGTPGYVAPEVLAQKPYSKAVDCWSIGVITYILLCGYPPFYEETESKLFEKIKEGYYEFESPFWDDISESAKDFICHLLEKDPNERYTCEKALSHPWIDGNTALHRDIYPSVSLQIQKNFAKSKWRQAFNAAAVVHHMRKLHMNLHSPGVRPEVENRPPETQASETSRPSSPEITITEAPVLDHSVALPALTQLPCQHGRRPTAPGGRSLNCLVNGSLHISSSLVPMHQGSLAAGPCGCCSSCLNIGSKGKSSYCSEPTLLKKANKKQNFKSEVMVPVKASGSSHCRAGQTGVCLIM
Chain of TGFBR1 (human) (P36897 whole entry, looked up): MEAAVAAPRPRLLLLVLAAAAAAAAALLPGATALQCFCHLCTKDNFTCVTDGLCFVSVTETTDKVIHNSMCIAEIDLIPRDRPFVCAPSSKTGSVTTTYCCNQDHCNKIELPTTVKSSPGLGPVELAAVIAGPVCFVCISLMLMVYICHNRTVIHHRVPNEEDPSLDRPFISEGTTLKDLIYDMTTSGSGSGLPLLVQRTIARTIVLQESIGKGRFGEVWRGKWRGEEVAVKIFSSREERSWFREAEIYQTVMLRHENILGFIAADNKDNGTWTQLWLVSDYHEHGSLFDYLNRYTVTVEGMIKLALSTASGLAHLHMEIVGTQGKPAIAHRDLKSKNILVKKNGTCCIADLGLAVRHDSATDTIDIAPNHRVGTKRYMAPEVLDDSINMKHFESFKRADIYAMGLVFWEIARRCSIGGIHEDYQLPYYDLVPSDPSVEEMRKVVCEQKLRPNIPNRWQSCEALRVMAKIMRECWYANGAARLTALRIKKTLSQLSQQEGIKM

SMILES: O=C1Nc2cc(Br)ccc2/C1=C1/Nc2ccccc2/C1=N\O
- residual activity (SLK (human)): 56.1%
- residual activity (CDK6 CCND3 (human)): 25.4%
- residual activity (PRKACA (human)): 106%
- residual activity (TYRO3 (human)): 81.6%
- residual activity (CDK2 CCNA2 (human)): 7.66%
- residual activity (CAMK1G (human)): 96%
- residual activity (PAK7 (human)): 104%
- residual activity (PDGFRA (human)): 68.4%
- residual activity (EPHB2 (human)): 74.7%
- residual activity (TGFBR2 (human)): 106%
- residual activity (DAPK2 (human)): 91%
- residual activity (DAPK1 (human)): 90%
- residual activity (CLK1 (human)): 93.1%
- residual activity (CDK4 CCND1 (human)): 93.4%
- residual activity (MAP3K9 (human)): 9.21%
- residual activity (TBK1 (human)): 62.1%
- residual activity (MKNK2 (human)): 75.3%
- residual activity (CAMK2A (human)): 13.9%
- residual activity (STK11 (human)): 42.1%
- residual activity (STK10 (human)): 52.8%
- residual activity (CHEK1 (human)): 57.1%
- residual activity (PRKG2 (human)): 69.1%
- residual activity (FLT3 (human)): 4.02%
- residual activity (TAOK3 (human)): 56.9%
- residual activity (PRKX (human)): 92.1%
- residual activity (CAMK2B (human)): 65.8%
- residual activity (CAMK2D (human)): 23%
- residual activity (JAK2 JH1 JH2 (human)): 93.8%
- residual activity (STK3 (human)): 20.5%
- residual activity (AKT2 (human)): 101%
- residual activity (HCK (human)): 13.3%
- residual activity (INSRR (human)): 81%
- residual activity (SYK (human)): 45.7%
- residual activity (TSSK2 (human)): 101%
- residual activity (PAK2 (human)): 90.9%
- residual activity (ROCK1 (human)): 99%
- residual activity (IKBKB (human)): 85.4%
- residual activity (CDK3 CCNE1 (human)): 25.2%
- residual activity (IRAK4 (human)): 90.1%
- residual activity (PRKCB2 (human)): 108%
- residual activity (TGFBR1 (human)): 99.8%

SMILES: COc1cc2ncnc(Nc3ccc(F)c(Cl)c3)c2cc1OCCCN1CCOCC1
- residual activity (SLK (human)): 83.7%
- residual activity (CDK6 CCND3 (human)): 118%
- residual activity (PRKACA (human)): 96.3%
- residual activity (TYRO3 (human)): 94.9%
- residual activity (CDK2 CCNA2 (human)): 95.9%
- residual activity (CAMK1G (human)): 103%
- residual activity (PAK7 (human)): 97.4%
- residual activity (PRKCA (human)): 93.6%
- residual activity (PDGFRA (human)): 97%
- residual activity (EPHB2 (human)): 87.7%
- residual activity (TGFBR2 (human)): 93.8%
- residual activity (DAPK2 (human)): 93.2%
- residual activity (DAPK1 (human)): 109%
- residual activity (CLK1 (human)): 105%
- residual activity (CDK4 CCND1 (human)): 94.3%
- residual activity (MAP3K9 (human)): 110%
- residual activity (TBK1 (human)): 83.1%
- residual activity (MKNK2 (human)): 54.1%
- residual activity (CAMK2A (human)): 94.4%
- residual activity (STK11 (human)): 106%
- residual activity (STK10 (human)): 38.6%
- residual activity (CHEK1 (human)): 95.3%
- residual activity (FLT3 (human)): 56.5%
- residual activity (TAOK3 (human)): 99.5%
- residual activity (CAMK2B (human)): 95.4%
- residual activity (CAMK2D (human)): 92.4%
- residual activity (JAK2 JH1 JH2 (human)): 99.8%
- residual activity (STK3 (human)): 93.6%
- residual activity (HCK (human)): 73.3%
- residual activity (INSRR (human)): 112%
- residual activity (SYK (human)): 104%
- residual activity (TSSK2 (human)): 91.5%
- residual activity (PAK2 (human)): 100%
- residual activity (ROCK1 (human)): 106%
- residual activity (IKBKB (human)): 86.5%
- residual activity (CDK3 CCNE1 (human)): 95%
- residual activity (IRAK4 (human)): 78.8%
- residual activity (PRKCB2 (human)): 100%
- residual activity (TGFBR1 (human)): 99.6%

SMILES: Nc1nc(Nc2ccc(S(N)(=O)=O)cc2)nn1C(=O)c1c(F)cccc1F
- residual activity (SLK (human)): 19.1%
- residual activity (CDK6 CCND3 (human)): 36.3%
- residual activity (PRKACA (human)): 98.8%
- residual activity (TYRO3 (human)): 98.6%
- residual activity (CDK2 CCNA2 (human)): 2.21%
- residual activity (CAMK1G (human)): 101%
- residual activity (PAK7 (human)): 85.4%
- residual activity (PRKCA (human)): 55.7%
- residual activity (PDGFRA (human)): 82%
- residual activity (EPHB2 (human)): 96.1%
- residual activity (TGFBR2 (human)): 98.5%
- residual activity (DAPK2 (human)): 107%
- residual activity (DAPK1 (human)): 93.8%
- residual activity (CLK1 (human)): 85.1%
- residual activity (CDK4 CCND1 (human)): 20%
- residual activity (MAP3K9 (human)): 25.6%
- residual activity (TBK1 (human)): 80%
- residual activity (MKNK2 (human)): 95.9%
- residual activity (CAMK2A (human)): 104%
- residual activity (STK11 (human)): 85.8%
- residual activity (STK10 (human)): 17%
- residual activity (CHEK1 (human)): 76.3%
- residual activity (PRKG2 (human)): 92.2%
- residual activity (FLT3 (human)): 44.3%
- residual activity (TAOK3 (human)): 39.9%
- residual activity (PRKX (human)): 89%
- residual activity (CAMK2B (human)): 99.7%
- residual activity (CAMK2D (human)): 94.6%
- residual activity (JAK2 JH1 JH2 (human)): 19.2%
- residual activity (STK3 (human)): 34.3%
- residual activity (AKT2 (human)): 107%
- residual activity (HCK (human)): 86.2%
- residual activity (INSRR (human)): 93.8%
- residual activity (SYK (human)): 61.6%
- residual activity (TSSK2 (human)): 103%
- residual activity (ROCK1 (human)): 42.6%
- residual activity (IKBKB (human)): 105%
- residual activity (CDK3 CCNE1 (human)): 32.4%
- residual activity (IRAK4 (human)): 151%
- residual activity (PRKCB2 (human)): 90.5%
- residual activity (TGFBR1 (human)): 104%
